Measurements published in the NIST ThermoML archive (doi:10.1021/je100556t).
Numbers after ± are expanded uncertainties.

settings: 298.15 K; 101.33 kPa; Liquid

Compound | molar volume [m3/mol]
CCOCCO [2-ethoxyethan-1-ol] | 9.742e-05 ± 4e-08
COCCO [2-methoxyethan-1-ol] | 7.926e-05 ± 3e-08

Second part, the compound after the results:

molar volume [m3/mol] | Compound
0.0001088 ± 9e-08 | C1CCCCC1 [cyclohexane]
5.866e-05 ± 5e-08 | CCO [ethanol]
8.174e-05 ± 4e-08 | C1CCOC1 [tetrahydrofuran]
